From patent publication US9981964B2 (Agency for Science, Technology and Research, priority 2013, dated 2018)

system: HEK293-STF3A cells; test: STF3A assay (STF luciferase reporter in Wnt3A-expressing HEK293 cells); assay type: cell-based; settings: Homo sapiens, 24 h, 1 day of treatment
How it was run: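 HEK293 cells carrying the STF reporter and expressing Wnt3A, seeded 2×10^4 per well overnight, then treated 1 day with compound at final 50 μM to 1.5 nM. Luciferase activity read by luminescence after Steady-Glo reagent, 10 min at room temperature.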

COc1ccc(-c2ccc(NC(=O)CN3CCCC4=C3C(=O)N(C3CC3)C4=O)nc2)nc1 [Compound 130, 2-(6-cyclopropyl-5,7-dioxo-2,3,4,5,6,7-hexahydro-1H-pyrrolo[3,4-b]pyridin-1-yl)-N-(5-methoxy-[2,3′-bipyridin]-6′-yl)acetamide] and Cc1ccc(-c2ccc(NC(=O)CN3CCCC4=C3C(=O)N(C3CC3)C4=O)nc2)nc1 [Compound 146, 2-(6-cyclopropyl-5,7-dioxo-2,3,4,5,6,7-hexahydro-1H-pyrrolo[3,4-b]pyridin-1-yl)-N-(5-methyl-2,3′-bipyridin-6′-yl)acetamide] cannot be ordered by IC50: < 100 nM for the first, < 1000 nM for the second.

Cc1cccc(-c2ccc(NC(=O)CN3CCCC4=C3C(=O)N(C)C4=O)cn2)c1 [Compound 131, 2-(6-methyl-5,7-dioxo-2,3,4,5,6,7-hexahydro-1H-pyrrolo[3,4-b]pyridin-1-yl)-N-(6-(m-tolyl)pyridin-3-yl)acetamide] and CN1C(=O)C2=C(C1=O)N(CC(=O)Nc1ccc(-c3cccc(F)c3)nc1)CCC2 [Compound 154, N-(6-(3-fluorophenyl)pyridin-3-yl)-2-(6-methyl-5,7-dioxo-2,3,4,5,6,7-hexahydro-1H-pyrrolo[3,4-b]pyridin-1-yl)acetamide] cannot be ordered by IC50: < 100 nM for the first, < 100 nM for the second.

Cc1cnc(-c2ccc(NC(=O)CN3CCCC4=C3C(=O)N(C)C4=O)nc2)cn1 [Compound 132, 2-(6-methyl-5,7-dioxo-2,3,4,5,6,7-hexahydro-1H-pyrrolo[3,4-b]pyridin-1-yl)-N-(5-(5-methylpyrazin-2-yl)pyridin-2-yl)acetamide] and Cc1cncc(-c2ccc(NC(=O)CN3CCCC4=C3C(=O)N(C)C4=O)nc2)c1 [Compound 148, 2-(6-methyl-5,7-dioxo-2,3,4,5,6,7-hexahydro-1H-pyrrolo[3,4-b]pyridin-1-yl)-N-(5′-methyl-[3,3′-bipyridin]-6-yl)acetamide] cannot be ordered by IC50: < 100 nM for the first, < 100 nM for the second.

Cc1cc(NC(=O)CN2CCCC3=C2C(=O)N(C2CC2)C3=O)cnc1-c1cccnc1 [Compound 133, 2-(6-cyclopropyl-5,7-dioxo-2,3,4,5,6,7-hexahydro-1H-pyrrolo[3,4-b]pyridin-1-yl)-N-(3-methyl-2,3′-bipyridin-5-yl)acetamide] and Cc1cc(-c2cccnc2)ncc1NC(=O)CN1CCCC2=C1C(=O)N(C1CC1)C2=O [Compound 140, 2-(6-cyclopropyl-5,7-dioxo-2,3,4,5,6,7-hexahydro-1H-pyrrolo[3,4-b]pyridin-1-yl)-N-(4-methyl-2,3′-bipyridin-5-yl)acetamide] cannot be ordered by IC50: < 1000 nM for the first, < 10000 nM for the second.

Cc1ncccc1-c1ccc(NC(=O)CN2CCCC3=C2C(=O)N(C)C3=O)nn1 [Compound 134, 2-(6-methyl-5,7-dioxo-2,3,4,5,6,7-hexahydro-1H-pyrrolo[3,4-b]pyridin-1-yl)-N-(6-(2-methylpyridin-3-yl)pyridazin-3-yl)acetamide] and CN1C(=O)C2=C(C1=O)N(CC(=O)Nc1ccc(-c3cncc(F)c3)cn1)CCC2 [Compound 143, N-(5′-fluoro-3,3′-bipyridin-6-yl)-2-(6-methyl-5,7-dioxo-2,3,4,5,6,7-hexahydro-1H-pyrrolo[3,4-b]pyridin-1-yl)acetamide] cannot be ordered by IC50: < 5000 nM for the first, < 100 nM for the second.

O=C(CN1CCCC2=C1C(=O)N(C1CC1)C2=O)Nc1ccc(-c2cccnc2F)nc1 [Compound 135, 2-(6-cyclopropyl-5,7-dioxo-2,3,4,5,6,7-hexahydro-1H-pyrrolo[3,4-b]pyridin-1-yl)-N-(2′-fluoro-2,3′-bipyridin-5-yl)acetamide] and Cc1ccncc1-c1ccc(NC(=O)CN2CCCC3=C2C(=O)N(C2CC2)C3=O)cn1 [Compound 138, 2-(6-cyclopropyl-5,7-dioxo-2,3,4,5,6,7-hexahydro-1H-pyrrolo[3,4-b]pyridin-1-yl)-N-(4′-methyl-2,3′-bipyridin-5-yl)acetamide] cannot be ordered by IC50: < 100 nM for the first, < 1000 nM for the second.

O=C(CN1CCCC2=C1C(=O)N(C1CC1)C2=O)Nc1ccc(-c2cccnc2)nc1F [Compound 137] and O=C(CN1CCCC2=C1C(=O)N(C1CC1)C2=O)Nc1cc(F)c(-c2cccnc2)cn1 [Compound 151, 2-(6-cyclopropyl-5,7-dioxo-2,3,4,5,6,7-hexahydro-1H-pyrrolo[3,4-b]pyridin-1-yl)-N-(4-fluoro-3,3′-bipyridin-6-yl)acetamide] cannot be ordered by IC50: < 100 nM for the first, < 100 nM for the second.

CC(C(=O)Nc1ccc(-c2cncc(F)c2)cn1)N1CCCC2=C1C(=O)N(C)C2=O (stereo not drawn) [Compound 139, N-(5′-fluoro-3,3′-bipyridin-6-yl)-2-(6-methyl-5,7-dioxo-2,3,4,5,6,7-hexahydro-1H-pyrrolo[3,4-b]pyridin-1-yl)propanamide] and CN1C(=O)C2=C(C1=O)N(CC(=O)Nc1cnc(-c3cncc(F)c3)cn1)CCC2 [Compound 141, N-(5-(5-fluoropyridin-3-yl)pyrazin-2-yl)-2-(6-methyl-5,7-dioxo-2,3,4,5,6,7-hexahydro-1H-pyrrolo[3,4-b]pyridin-1-yl)acetamide] cannot be ordered by IC50: < 100 nM for the first, < 100 nM for the second.

O=C(CN1CCCC2=C1C(=O)N(C1CC1)C2=O)Nc1cnc(-c2cncc(F)c2)cn1 [Compound 142, 2-(6-cyclopropyl-5,7-dioxo-2,3,4,5,6,7-hexahydro-1H-pyrrolo[3,4-b]pyridin-1-yl)-N-(5-(5-fluoropyridin-3-yl)pyrazin-2-yl)acetamide] and COc1cncc(-c2ccc(NC(=O)CN3CCCC4=C3C(=O)N(C3CC3)C4=O)cn2)c1 [Compound 144, 2-(6-cyclopropyl-5,7-dioxo-2,3,4,5,6,7-hexahydro-1H-pyrrolo[3,4-b]pyridin-1-yl)-N-(5′-methoxy-2,3′-bipyridin-5-yl)acetamide] cannot be ordered by IC50: < 100 nM for the first, < 100 nM for the second.

COc1ccc(-c2ccc(NC(=O)CN3CCCC4=C3C(=O)N(C3CC3)C4=O)cn2)cn1 [Compound 145, 2-(6-cyclopropyl-5,7-dioxo-2,3,4,5,6,7-hexahydro-1H-pyrrolo[3,4-b]pyridin-1-yl)-N-(6′-methoxy-2,3′-bipyridin-5-yl)acetamide] and Cc1ccnc(-c2ccc(NC(=O)CN3CCCC4=C3C(=O)N(C3CC3)C4=O)nc2)c1 [Compound 150, 2-(6-cyclopropyl-5,7-dioxo-2,3,4,5,6,7-hexahydro-1H-pyrrolo[3,4-b]pyridin-1-yl)-N-(4-methyl-[2,3′-bipyridin]-6′-yl)acetamide] cannot be ordered by IC50: < 100 nM for the first, < 100 nM for the second.

COc1cncc(-c2ccc(NC(=O)CN3CCCC4=C3C(=O)N(C3CC3)C4=O)nc2)c1 [Compound 147, 2-(6-cyclopropyl-5,7-dioxo-2,3,4,5,6,7-hexahydro-1H-pyrrolo[3,4-b]pyridin-1-yl)-N-(5′-methoxy-3,3′-bipyridin-6-yl)acetamide] and COc1cncc(-c2ccc(NC(=O)CN3CCCC4=C3C(=O)N(C3CC3)C4=O)nn2)c1 [Compound 153, 2-(6-cyclopropyl-5,7-dioxo-2,3,4,5,6,7-hexahydro-1H-pyrrolo[3,4-b]pyridin-1-yl)-N-(6-(5-methoxypyridin-3-yl)pyridazin-3-yl)acetamide] cannot be ordered by IC50: < 100 nM for the first, < 100 nM for the second.

Cc1cncc(-c2ccc(NC(=O)CN3CCCC4=C3C(=O)N(C)C4=O)cn2)c1 [Compound 149, 2-(6-methyl-5,7-dioxo-2,3,4,5,6,7-hexahydro-1H-pyrrolo[3,4-b]pyridin-1-yl)-N-(5′-methyl-[2,3′-bipyridin]-5-yl)acetamide] and CN1C(=O)C2=C(C1=O)N(CC(=O)Nc1ccc(-c3ccc(F)cc3)nc1)CCC2 [Compound 152, N-(6-(4-fluorophenyl)pyridin-3-yl)-2-(6-methyl-5,7-dioxo-2,3,4,5,6,7-hexahydro-1H-pyrrolo[3,4-b]pyridin-1-yl)acetamide] cannot be ordered by IC50: < 100 nM for the first, < 100 nM for the second.
